Measured values reported in US8956622B2, “Peptidic antagonists of class III semaphorins/neuropilins complexes” (INSERM—Institut National de la Sante et de la Recherche …, priority 2005, dated 2015).
Read-outs that look alike come from different tables or passages of the source.

Tests used:
[1] = system: cortical axons collapses triggered by Sema3A; assay: Cortical axons collapses triggered by Sema3A in neocortex explants; assay type: cell-based, mouse; conditions: Sema3A 100 ng/ml, peptide 10^−8 to 10^−11 M, 2 h, read-out: IC50, inhibition of cortical axons collapses induced by Sema3A
Description: The inhibitory axon growth property of Sema 3A is supposed to be linked to its induction capacity of growth cone collapses. To investigate the effect of the pTM-NRP1 peptide on the Sema 3A functional properties, the growth of cortical neurons was analyzed in the presence or not of Sema 3A and of pTM-NRP1 or pTM-NRP1^mut (NRP1 TM with a triple G→V mutation) peptides.
Laminine/Poly-L-Lysine substrates have been made by adding 980 μL of Gey's balanced salt solution (GBSS, SIGMA) to 10 μL laminine (1 mg/ml, SIGMA) and to 10 μL poly-L-Lysine (10 mg/ml, SIGMA). Sterile coverslips have been placed in a big dish and added with substrate (100 μL). Then, ‘sandwiches’ have been prepared by covering each coverslip with a second one. After an incubation for at least 30 min at 37° C. under 5% CO2 in air, ‘sandwiches’ have been opened and each coverslip has been rinsed with deionized water. Explants have been cultured on dried coverslips.
Neocortex fragments prepared from E15 mouse embryos (E1 determined as the first day of embryonic development by detection of vaginal plug) have been transferred on a tissue chopper disk. Tissue have been cut into 200×200 μm by rotating the disk by 90° after the first cut. Cortex cubes have been collected with a spatula and put into culture medium in a Petri dish. Two coverslips with substrate have been placed in a small Petri dish (50 mm diameter, FALCON). After adding 750 μl of culture medium, the coverslips should stay in the incubator for at least 10 minutes. Using a dissecting microscope, forty to fifty cortical explants have been collected in 20 μl culture medium and carefully placed onto the coverslips. After 15 min at room temperature, most explants have adhered to their substrate. 2250 μl of culture medium have been slowly added to each dish. Then, explants cultures have been kept at 37° C. under 5% CO2 in air.
A radial outgrowth could be seen after 18-24 h in culture, and individual fibres and growth cones could have therefore been analyzed. Products tested on growth cones have been directly added in culture medium for 2 h: • purified Sema3A (100 ng/ml) prepared from conditioned medium of HEK293 cells stably expressing Sema3A. The purification was performed by using the anti-Flag system, SIGMA) • pTM-NRP1 (10^−8, 10^−9, 10^−10 and 10^−11 M), • 10^−8M mpTM-NRP1, • 10^−8M pTM-ErbB2w (SEQ ID NO. 18).
After incubation, 4% formaldehyde has been directly added in culture medium (v/v) for 15min. Then the solution has been removed and replaced by 4% formaldehyde for 15 min.

[2] = molecular target: T1, NRP1 (Homo sapiens, UniProt O14786); assay: AP-Sema3A binding to NRP1-expressing COS cells (optical density per cell); conditions: peptide 10^−9 M, 1 hour pre-incubation
T1 construct: mutations were introduced into the TM domain of a full length NRP1; expressed in transfected cells; host or cells: COS-1 cells, pBK-CMV plasmid (cDNA provided by Pr. Puschel)
T1 sequence (O14786 22-923): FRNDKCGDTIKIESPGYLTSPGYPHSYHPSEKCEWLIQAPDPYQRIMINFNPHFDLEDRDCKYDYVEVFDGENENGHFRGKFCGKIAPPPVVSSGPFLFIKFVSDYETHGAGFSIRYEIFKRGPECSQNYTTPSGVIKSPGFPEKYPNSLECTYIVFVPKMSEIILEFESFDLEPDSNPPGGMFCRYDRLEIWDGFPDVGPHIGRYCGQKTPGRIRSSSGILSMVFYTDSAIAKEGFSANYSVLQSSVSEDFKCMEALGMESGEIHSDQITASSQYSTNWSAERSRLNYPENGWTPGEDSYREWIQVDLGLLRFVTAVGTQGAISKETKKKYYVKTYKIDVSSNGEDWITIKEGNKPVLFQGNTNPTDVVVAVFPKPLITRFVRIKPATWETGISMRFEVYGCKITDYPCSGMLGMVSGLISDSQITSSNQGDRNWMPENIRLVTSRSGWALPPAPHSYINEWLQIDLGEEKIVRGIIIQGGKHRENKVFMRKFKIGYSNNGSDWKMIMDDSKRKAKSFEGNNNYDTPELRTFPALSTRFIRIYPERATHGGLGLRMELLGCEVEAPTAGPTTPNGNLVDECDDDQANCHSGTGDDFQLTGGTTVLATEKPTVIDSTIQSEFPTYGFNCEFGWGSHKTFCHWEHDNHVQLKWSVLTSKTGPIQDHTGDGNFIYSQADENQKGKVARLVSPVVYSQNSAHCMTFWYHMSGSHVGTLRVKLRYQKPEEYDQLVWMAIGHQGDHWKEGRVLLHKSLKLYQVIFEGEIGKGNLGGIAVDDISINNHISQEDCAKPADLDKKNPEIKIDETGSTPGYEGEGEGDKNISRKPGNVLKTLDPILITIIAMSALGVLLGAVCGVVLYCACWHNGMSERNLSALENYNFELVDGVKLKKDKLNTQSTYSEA
Description: NRP1 expressing COS cells were incubated with AP-Sema3A, a fusion protein of Sema3A and the secreted alkaline phosphatase (BAGNARD et al., 1998).
Wild-type COS cells or NRP1-expressing COS cells (COS-NRP1) were cultured on 12-wells plates on poly-L-lysine-coated glass coverslips (0.005 mg/ml). After one-hour incubation with pTM-NRP1 or pTM-NRP1^mut (10^−9M) in serum-free medium at 37° C., the culture medium was replaced by conditioned medium containing alkaline phosphatase-coupled Sema3A (AP-Sema3A; BAGNARD et al., 1998) obtained from AP-Sema3A stably expressing HEK cells for 90 mn. Conditioned medium without semaphorin served as a control (obtained from non-transfected HEK). Cells were washed three times with PBS and fixed in 4% formaldehyde before transfer in a new dish. After three washes in PBS, the plate was warmed for 50 mn at 65° C. Cells were subsequently incubated with 1 ml of alkaline phosphatase substrate (NBT/BCIP, SIGMA) in the dark. After 45 mn, substrate was removed and glass coverslips were rinsed. Pictures were acquired with a conventional microscope and analyzed with AxioVision LE Zeiss software. For each condition tested, about 60 cells were analyzed to determine binding levels as a function of optical density. Statistical analysis was performed by using a Student's t test.

[3] = system: PC12 cells; assay: PC12 cell differentiation / neuritic outgrowth assay; assay type: cell-based; conditions: peptide 10^−9 M
Description: To further investigate the biochemical consequence of the TM-NRP1 in terms of receptor complex formation, we analyzed the formation of complexes in the PC12 neuronal cells model.
PC12 (ATCC: CRL-1721) were grown in D-MEM medium with 4.5 g of glucose/L (GIBCO), 5% FVS, 10% horse serum, glutamine 580 mg/L and antibiotics. For functional assays, PC12 were cultured on 12-wells plates with previously poly-L-lysine-coated glass coverslips. PC12 cells were incubated 1 h with or without pTM-NRP1 peptide (10^−9M) at 37° C. Culture medium was removed and replaced by NGF-containing (100 ng/mL; GIBCO) serum free medium or by conditioned medium obtained from HEK293 cells stably expressing Sema3A or non-transfected cells (control, see BAGNARD et al., 1998 for details) for 12 h at 37° C.
Cells were fixed with 2% formaldehyde for 30 mn followed by 15 mn in 4% formaldehyde. For each condition tested, around 400 cells were analyzed to evaluate neuritic outgrowth (Statistical analyses were made by using χ^2 test).

[4] = system: VEGF165 signalling in C6 cells; assay: VEGF165-induced migration of C6 tumour cell aggregates in 3D matrix (plasma clot); assay type: cell-based; conditions: VEGF165 50 ng/ml, peptide 10^−8 M
Description: NRP1 is a receptor of VEGF (NEUFELD et al., Adv. Exp. Med. Biol., vol. 515, p: 81-90, 2002). We therefore verified that pTM-NRP1 can antagonize VEGF signalling in C6 cells. To this end, C6 tumour cell aggregates prepared as previously described (see BAGNARD et al., 1998; and NASARRE et al., Neoplasia, vol. 7, p: 180-189, 2005) were grown in the 3D matrix (plasma clot) and treated with VEGF165.

binding of AP-Sema3A to NRP1-expressing COS cells [2]: significantly reduced
Sequence: ILITIIAMSALGVLLGAVCGVVL [pTM-NRP1]
IC50 ([1]; listed as peptide corresponding to the transmembrane domain of NRP1): < 0.01 nM | IC50 [1]: ~0.01 nM | NGF effect on PC12 cell differentiation ([3]; NGF 100 ng/mL 12 h): preserved | Sema3A induced neurite growth promotion ([3]; Sema3A conditioned medium 12 h): significantly reduced | VEGF165-dependent C6 cells migration out of aggregates [4]: suppressed
